Measured values: PubChem BioAssay (NCI)
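Compound exposure: 48 hours, 5 concentrations, 96-well plates. At the TGI there is no net growth.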

What was measured:
Test in all cases: growth of human tumour cells (NCI), 48 h
SW-620 colon = tested on: SW-620 colon
NCI-H460 lung = tested on: NCI-H460 lung
K-562 leukemia = tested on: K-562 leukemia
HCT-15 colon = tested on: HCT-15 colon
UACC-257 melanoma = tested on: UACC-257 melanoma
A549 NSCLC = tested on: A549 NSCLC
NCI-H522 lung = tested on: NCI-H522 lung
M14 melanoma = tested on: M14 melanoma
CCRF-CEM leukemia = tested on: CCRF-CEM leukemia
RXF 393 renal = tested on: RXF 393 renal
HCT-116 colon = tested on: HCT-116 colon
UACC-62 melanoma = tested on: UACC-62 melanoma
HL-60(TB) leukemia = tested on: HL-60(TB) leukemia
OVCAR-3 ovarian = tested on: OVCAR-3 ovarian
BT-549 breast = tested on: BT-549 breast
SF-295 CNS = tested on: SF-295 CNS
MALME-3M melanoma = tested on: MALME-3M melanoma
RPMI-8226 leukemia = tested on: RPMI-8226 leukemia
SK-MEL-28 melanoma = tested on: SK-MEL-28 melanoma
SNB-75 CNS = tested on: SNB-75 CNS

Structure (SMILES)	TGI (SW-620 colon) [µM]	TGI (NCI-H460 lung) [µM]	TGI (K-562 leukemia) [µM]	TGI (HCT-15 colon) [µM]	TGI (UACC-257 melanoma) [µM]	TGI (A549 NSCLC) [µM]	TGI (NCI-H522 lung) [µM]	TGI (M14 melanoma) [µM]	TGI (CCRF-CEM leukemia) [µM]	TGI (RXF 393 renal) [µM]	TGI (HCT-116 colon) [µM]	TGI (UACC-62 melanoma) [µM]	TGI (HL-60(TB) leukemia) [µM]	TGI (OVCAR-3 ovarian) [µM]	TGI (BT-549 breast) [µM]	TGI (SF-295 CNS) [µM]	TGI (MALME-3M melanoma) [µM]	TGI (RPMI-8226 leukemia) [µM]	TGI (SK-MEL-28 melanoma) [µM]	TGI (SNB-75 CNS) [µM]
C1=Nc2ccc(cc2)N=Cc2ccccc2OCc2cccc(n2)COc2ccccc21	> 100	> 100	> 100	> 100	> 100	> 100	> 100	> 100	> 100	36.2	> 100	> 100	> 100	> 100	> 100	> 100	> 100	–	–	–
CC1(C)O[C@H]([C@H](O)c2nnc3ccc(Cl)nn23)[C@@H]([C@H]2COC(C)(C)O2)O1	> 100	> 100	–	> 100	> 100	> 100	> 100	> 100	> 100	> 100	> 100	> 100	> 100	> 100	> 100	> 100	> 100	> 100	> 100	–
CCOC(=O)/C(C=Nc1c(C)n(C)n(-c2ccccc2)c1=O)=C(/O)c1ccccc1	> 100	> 100	> 100	> 100	> 100	> 100	> 100	> 100	> 100	> 100	> 100	> 100	> 100	> 100	> 100	> 100	> 100	> 100	> 100	–
CCOC(=O)C(NC(=O)C(CCCCNP(=O)(OCC)OCC)NC(=O)C(C)NC(C)=O)C(C)C (stereo not given)	> 100	> 100	> 100	> 100	> 100	> 100	–	> 100	> 100	> 100	> 100	–	> 100	> 100	> 100	> 100	> 100	> 100	> 100	> 100
O=C(Nc1ccc(Cl)cc1)NS(=O)(=O)c1coc2ccccc2c1=O	> 10	> 10	–	> 10	> 10	> 10	> 10	> 10	> 10	> 10	> 10	> 10	> 10	> 10	> 10	> 10	> 10	> 10	> 10	> 10
CCc1n[nH]c(=O)n1N1C(=O)CCC1=O	> 100	> 100	> 100	> 100	> 100	> 100	> 100	> 100	> 100	> 100	> 100	> 100	–	> 100	> 100	> 100	> 100	> 100	> 100	> 100
C=C1[C@H](OC(=O)C(C)C)[C@@H](OC(C)=O)[C@@H](OC(C)=O)C(C)(C)[C@@H]2O[C@H]2[C@@H](C)C(=O)[C@@]2(OC(C)=O)C[C@@](C)(OC(C)=O)[C@H](OC(C)=O)[C@@H]2[C@H]1OC(C)=O	> 100	> 100	> 100	> 100	> 100	> 100	> 100	> 100	> 100	–	> 100	> 100	> 100	> 100	> 100	> 100	> 100	> 100	–	–
Cc1cc(=O)oc2cc(SC(=O)N(C)C)ccc12	> 100	> 100	–	> 100	> 100	> 100	> 100	> 100	–	> 100	> 100	> 100	> 100	> 100	> 100	> 100	> 100	> 100	> 100	> 100
O=C(NCCc1ccccc1)[C@H]1CCCC[C@@H]1CCO	> 100	> 100	> 100	> 100	> 100	> 100	> 100	> 100	> 100	> 100	> 100	> 100	> 100	> 100	> 100	> 100	–	> 100	> 100	> 100
CC1=[N+]([O-])C(C)(C)N(N=O)C1(C)C	> 10	> 10	> 10	> 10	> 10	> 10	> 10	> 10	> 10	> 10	> 10	–	> 10	> 10	> 10	> 10	> 10	> 10	–	–
Oc1cccc(-c2ccc3c4c2O[C@H]2c5[nH]c6ccccc6c5C[C@@]5(O)[C@@H](C3)N(CC3CC3)CC[C@]425)c1	6.15	–	–	3.03	–	3.22	–	3.07	10.4	2.63	3.22	–	4.03	3.42	23	3.21	3.38	–	–	–
N#CC1(C#N)NC(c2cccnc2)C(C#N)(C#N)NC1c1cccnc1 (stereo not given)	> 100	–	> 100	> 100	> 100	> 100	–	> 100	> 100	> 100	> 100	> 100	> 100	> 100	> 100	> 100	> 100	> 100	> 100	> 100
O=C1C=CC(=O)c2c1cc([N+](=O)[O-])c1ccoc21	> 100	35.2	> 100	58.5	32.4	40.9	4.4	11.3	> 19.7	3.75	12.5	29.4	8.72	70.2	30.8	35.8	–	> 100	60	> 59.5
